The nature of one series: in vivo. The note with it: female, CD-1, mouse.
The conditions of series [1]: female, CD-1, mouse, in vivo, po, 0.167 h.
A further series concerns SET-2 cells. The series can be described thus: SET-2 proliferation assay (CellTiter-Fluor). The note with it: 72 h, replicates (Fig. 2d). Type of series: cell-based, human. As for the experimental part:
Viable cells were counted by CellTiter-Fluor Assay (Promega) according to manufacturer’s protocol, and all fluorescence values were corrected by a no-cell control. […] Caspase activity was measured by Caspase-Glo 3/7 assay (Promega) according to the manufacturer’s protocol, and all luminescence values were corrected by a no-cell control. Dose response proliferation and Caspase activation data was normalized to vehicle treated control cells and analyzed by non-linear regression for determination of IC50 values. Data was generated from n = 3 independent experiments performed in replicate.

Series [2] in a line: Pharmacokinetic analysis of plasma after intravenous and oral dosing.
The nature of series [3]: Compound quantitation in blood and mesenteric lymph nodes. Type of series: in vivo, mouse. The following applies: mice, 4 h after oral 100 mg kg^−1. As for the experimental part:
Whole blood and mesenteric lymph nodes were collected either 30 min or 4 h following compound administration and stored at −20 °C until future processing and analysis by the University of Michigan Pharmacokinetics Core as above, or as outlined below, to determine compound concentrations in each tissue. […] Data was generated from n ≥ 4 individual animals per compound per study group or dose.
Briefly, acetonitrile was added to a final concentration of 60–80% to bone marrow, whole blood, plasma, lymphatic fluid, lymphatic proteo-lipid sub-fractions, or mesenteric lymph node samples for compound extraction. Extraction was performed by shaking and/or bead rupture using a Precellys Evolution tissue homogenizer (Bertin Technologies SAS). […] Optimization of MS and MS/MS parameters for MRM quantitation and maximum sensitivity of individual compounds was performed using SCIEX Analyst software (AB Sciex). […] All LC-MS/MS acquisitions were performed with an independent standard curve for each group of analytes and for each individual run. All solvents utilized were of Optima LC-MS Grade (Fisher Scientific). Data was generated from n ≥ 2 individual animals per compound per study condition or dose.

The test system of another series is MAPK signaling. The following applies: cited from earlier work.

Here are results for three compounds from article PMC9386018, “A lymphatic-absorbed multi-targeted kinase inhibitor for myelofibrosis therapy” (Nature Communications, 2022).

The structures appear in SMILES notation. Where “and” joins values, the source holds several entries; their conditions need not be identical. Equal entries are not always repeated.

With `COc1ccc(-c2ccc3c(N4CCOC[C@@H]4C)nc(N4CCOC[C@@H]4C)nc3n2)cc1CO` [AZD8055], in “in vivo” (iv), the concentration at 0.167 h was 3300 ng/mL, the concentration at 0.5 h was 2510 ng/mL, the concentration at 1 h worked out at 1710 ng/mL and the concentration at 2 h is 744 ng/mL. In addition, the concentration at 24 h in the series “in vivo” (iv) turned out to be 1 ng/mL. In the series “in vivo” (po), this compound registered a concentration at 0.167 h of 626 ng/mL, a concentration at 0.5 h of 3700 ng/mL, a concentration at 1 h of 3440 ng/mL and a concentration at 2 h of 4880 ng/mL. For the same compound, in the series “in vivo” (po), the concentration at 7 h came out at 3930 ng/mL and the concentration at 16 h is 4430 ng/mL. Further, in series [1], the Concentration is reported as 704 ng/mL.
With `O=C(NOCCO)c1ccc(F)c(F)c1Nc1ccc(I)cc1F` [PD0316684, reference compound], the “Growth (%)” value was 95.6027% and 82.3855% and 49.4653% and 99.6209% and 66.699% and 96.6844% with SET-2 cells (0.0390625 µM); 101.495% and 98.0639% and 103.106% and 103.604% and 92.0053% and 98.1242% in the series with SET-2 cells (0.078125 µM); 100.075% and 88.7042% and 52.4529% and 86.403% and 62.7397% and 78.9368% in the series with SET-2 cells (0.15625 µM); 97.1172% and 98.6318% and 60.2388% and 84.8639% and 78.1339% and 80.2658% in the series with SET-2 cells (0.3125 µM); 88.0297% and 91.2009% and 71.3744% and 84.6376% and 79.2414% and 81.5948% in the series on SET-2 cells (0.625 µM); 71.6887% and 74.5167% and 60.9631% and 39.5066% and 70.9074% and 51.4432% in the series with SET-2 cells (5 µM). The “Growth (%)” value in the series on SET-2 cells (10 µM) is 49.6443% and 48.6858% and 23.1653% and 17.5522% and 22.5652% and 22.2053%; with SET-2 cells (20 µM), 15.211% and 15.14% and -3.18% and -3.361% and -4.513% and -3.5163%. The concentration at 0.167 h amounted to 771 ng/mL in series [2] (female, CD-1, mouse, plasma, iv, 15 mg kg^−1, Concentration (ng/mL), mice, single i.v. LP-182 15 mg kg^−1, 0.167 h, analyte = label, individual animals); 89.6 ng/mL in series [2] (female, CD-1, mouse, plasma, iv, 15 mg kg^−1, Concentration, Figure 6c, Time 0.167 h, individual replicates); 234 ng/mL in series [2] (female, CD-1, mouse, plasma, iv, 15 mg kg^−1, Concentration, Figure 6d, Time 0.167 h, individual replicates); 175 ng/mL in series [2] (female, CD-1, mouse, plasma, po, 400 mg kg^−1, Concentration (ng/mL), mice, single p.o. LP-182 400 mg kg^−1, 0.167 h, analyte = label, individual animals). The concentration at 1 h in series [2] (female, CD-1, mouse, plasma, iv, 15 mg kg^−1, Concentration (ng/mL), mice, single i.v. LP-182 15 mg kg^−1, 1 h, analyte = label, individual animals) was 95.3 ng/mL; in series [2] (female, CD-1, mouse, plasma, iv, 15 mg kg^−1, Concentration, Figure 6c, Time 1 h, individual replicates), 39.4 ng/mL; in series [2] (female, CD-1, mouse, plasma, iv, 15 mg kg^−1, Concentration, Figure 6d, Time 1 h, individual replicates), 112 ng/mL; in series [2] (female, CD-1, mouse, plasma, po, 200 mg kg^−1, Concentration, Figure 6d, Time 1 h, individual replicates) it was 156 ng/mL; in series [2] (female, CD-1, mouse, plasma, po, 400 mg kg^−1, Concentration (ng/mL), mice, single p.o. LP-182 400 mg kg^−1, 1 h, analyte = label, individual animals) it was 500 ng/mL. Also, the concentration at 2 h in series [2] (female, CD-1, mouse, plasma, iv, 15 mg kg^−1, Concentration (ng/mL), mice, single i.v. LP-182 15 mg kg^−1, 2 h, analyte = label, individual animals) amounted to 58.1 ng/mL; in series [2] (female, CD-1, mouse, plasma, iv, 15 mg kg^−1, Concentration, Figure 6c, Time 2 h, individual replicates), 18.7 ng/mL; in series [2] (female, CD-1, mouse, plasma, iv, 15 mg kg^−1, Concentration, Figure 6d, Time 2 h, individual replicates), 62.8 ng/mL. For the same compound, the concentration at 4 h in series [2] (female, CD-1, mouse, plasma, iv, 15 mg kg^−1, Concentration (ng/mL), mice, single i.v. LP-182 15 mg kg^−1, 4 h, analyte = label, individual animals) worked out at 18.6 ng/mL; in series [2] (female, CD-1, mouse, plasma, iv, 15 mg kg^−1, Concentration, Figure 6d, Time 4 h, individual replicates) it was 39.4 ng/mL; in series [2] (female, CD-1, mouse, plasma, po, 400 mg kg^−1, Concentration (ng/mL), mice, single p.o. LP-182 400 mg kg^−1, 4 h, analyte = label, individual animals), 76.7 ng/mL. The concentration at 7 h in series [2] (female, CD-1, mouse, plasma, iv, 15 mg kg^−1, Concentration (ng/mL), mice, single i.v. LP-182 15 mg kg^−1, 7 h, analyte = label, individual animals) came out at 5.74 ng/mL; in series [2] (female, CD-1, mouse, plasma, iv, 15 mg kg^−1, Concentration, Figure 6d, Time 7 h, individual replicates), 35.3 ng/mL; in series [2] (female, CD-1, mouse, plasma, po, 200 mg kg^−1, Concentration, Figure 6c, Time 7 h, individual replicates) it was 260 ng/mL; in series [2] (female, CD-1, mouse, plasma, po, 200 mg kg^−1, Concentration, Figure 6d, Time 7 h, individual replicates), 201 ng/mL. Also, the concentration at 16 h was determined as 3.59 ng/mL in series [2] (female, CD-1, mouse, plasma, iv, 15 mg kg^−1, Concentration (ng/mL), mice, single i.v. LP-182 15 mg kg^−1, 16 h, analyte = label, individual animals) and 68.3 ng/mL in series [2] (female, CD-1, mouse, plasma, po, 400 mg kg^−1, Concentration (ng/mL), mice, single p.o. LP-182 400 mg kg^−1, 16 h, analyte = label, individual animals). Moreover, the concentration at 0.5 h worked out at 241 ng/mL in series [2] (female, CD-1, mouse, plasma, iv, 15 mg kg^−1, Concentration, Figure 6d, Time 0.5 h, individual replicates); 644 ng/mL in series [2] (female, CD-1, mouse, plasma, po, 200 mg kg^−1, Concentration, Figure 6c, Time 0.5 h, individual replicates); 254 ng/mL in series [2] (female, CD-1, mouse, plasma, po, 200 mg kg^−1, Concentration, Figure 6d, Time 0.5 h, individual replicates); 399 ng/mL in series [2] (female, CD-1, mouse, plasma, po, 400 mg kg^−1, Concentration (ng/mL), mice, single p.o. LP-182 400 mg kg^−1, 0.5 h, analyte = label, individual animals). The concentration at 24 h turned out to be 3.46 ng/mL in series [2] (female, CD-1, mouse, plasma, iv, 15 mg kg^−1, Concentration, Figure 6d, Time 24 h, individual replicates) and 78.6 ng/mL in series [2] (female, CD-1, mouse, plasma, po, 400 mg kg^−1, Concentration (ng/mL), mice, single p.o. LP-182 400 mg kg^−1, 24 h, analyte = label, individual animals). Besides, the concentration at […] in series [2] (female, CD-1, mouse, plasma, po, 200 mg kg^−1, Concentration, Figure 6d, Time […], individual replicates) turned out to be 131 ng/mL. Further, in series [2] (mice, after oral LP-182 400 mg kg^−1, analyte = label), the “plasma level maintained over 24 h” value was approximately 100 ng/mL. Moreover, the “uptake in the mesenteric lymph nodes compared to LP5-37” value in series [3] is recorded as “reduced uptake”.
With `O=C(NOC[C@H](O)CO)c1ccc(F)c(F)c1Nc1ccc(I)cc1F` [PD0325901], the “plasma concentration with significant pharmacologic activity against MAPK signaling” value in the series with MAPK signaling was more than 50 ng mL^−1.
